Test results reported in article PMC4014701 (Pharmaceuticals, 2014).
≈ marks a conversion by molar mass, not a printed value. Read-outs that look alike come from different tables or passages of the source.

Experiments:
MDCK-WT cells = experiment: Cytotoxicity, MTS assay; type: cell-based; conditions: 4 h incubation; for Reduction in absorbance (positive controls): medium containing 10% DMSO or 0.1% Triton-X
Protocol: Cytotoxicity of prodrugs was determined in MDCK-WT cells with MTS assay based cytotoxicity kit. Briefly, cells were grown overnight in 96 well plates at a density of 20,000 cells per well prior to drug and prodrug addition. […] Cells were then incubated for 4 h at 37 °C. Following incubation, 20 μL of MTS stock solution was added to each well and incubated for 2 h at 37 °C. […] The quantity of formazan product as measured by absorbance is directly proportional to the number of viable cells in test samples.

[1] = Buffer stability (chemical hydrolysis) in DPBS; conditions: for Degradation half life: DPBS; for half-life at 50 µM: DPBS buffer
Protocol: Chemical hydrolysis study of prodrugs was carried out according to the previously published protocols from our laboratory. Degradation rate constant and half-life (t1/2) of prodrugs were determined at various pH. […] Microcentrifuge tubes were placed in shaking water bath (60 rpm) at 37 °C. Samples (100 µL) were withdrawn at predetermined time points and stored at −80° C until further analysis. Prodrug concentrations remaining were plotted versus time in order to calculate degradation rate constants.
(§1) Aqueous solubility and buffer stability samples were measured with reversed phase HPLC technique. Waters 515 pump (Waters, Milford, MA, USA) connected to a UV detector (Absorbance Detector Model UV-C, RAININ, Dynamax, Palo Alto, CA, USA) was employed. A C(18) Kinetex column (100 × 4.6 mm, 2.6 µ; Phenomenex, Torrance, CA, USA) was pumped with mobile phase (1:1) acetonitrile and water (0.1% trifluoroacetic acid) at a flow rate of 0.3 mL/min. Analytes were detected with UV detection at a wavelength of 210 nm.

MRP2 (MDCK-MRP2 cells) [2] = molecular target: T1, MRP2 (MDCK-MRP2 cells) (Homo sapiens, UniProt Q92887); experiment: Transepithelial transport across MDCK-MRP2 cells
T1 sequence (Q92887 whole entry): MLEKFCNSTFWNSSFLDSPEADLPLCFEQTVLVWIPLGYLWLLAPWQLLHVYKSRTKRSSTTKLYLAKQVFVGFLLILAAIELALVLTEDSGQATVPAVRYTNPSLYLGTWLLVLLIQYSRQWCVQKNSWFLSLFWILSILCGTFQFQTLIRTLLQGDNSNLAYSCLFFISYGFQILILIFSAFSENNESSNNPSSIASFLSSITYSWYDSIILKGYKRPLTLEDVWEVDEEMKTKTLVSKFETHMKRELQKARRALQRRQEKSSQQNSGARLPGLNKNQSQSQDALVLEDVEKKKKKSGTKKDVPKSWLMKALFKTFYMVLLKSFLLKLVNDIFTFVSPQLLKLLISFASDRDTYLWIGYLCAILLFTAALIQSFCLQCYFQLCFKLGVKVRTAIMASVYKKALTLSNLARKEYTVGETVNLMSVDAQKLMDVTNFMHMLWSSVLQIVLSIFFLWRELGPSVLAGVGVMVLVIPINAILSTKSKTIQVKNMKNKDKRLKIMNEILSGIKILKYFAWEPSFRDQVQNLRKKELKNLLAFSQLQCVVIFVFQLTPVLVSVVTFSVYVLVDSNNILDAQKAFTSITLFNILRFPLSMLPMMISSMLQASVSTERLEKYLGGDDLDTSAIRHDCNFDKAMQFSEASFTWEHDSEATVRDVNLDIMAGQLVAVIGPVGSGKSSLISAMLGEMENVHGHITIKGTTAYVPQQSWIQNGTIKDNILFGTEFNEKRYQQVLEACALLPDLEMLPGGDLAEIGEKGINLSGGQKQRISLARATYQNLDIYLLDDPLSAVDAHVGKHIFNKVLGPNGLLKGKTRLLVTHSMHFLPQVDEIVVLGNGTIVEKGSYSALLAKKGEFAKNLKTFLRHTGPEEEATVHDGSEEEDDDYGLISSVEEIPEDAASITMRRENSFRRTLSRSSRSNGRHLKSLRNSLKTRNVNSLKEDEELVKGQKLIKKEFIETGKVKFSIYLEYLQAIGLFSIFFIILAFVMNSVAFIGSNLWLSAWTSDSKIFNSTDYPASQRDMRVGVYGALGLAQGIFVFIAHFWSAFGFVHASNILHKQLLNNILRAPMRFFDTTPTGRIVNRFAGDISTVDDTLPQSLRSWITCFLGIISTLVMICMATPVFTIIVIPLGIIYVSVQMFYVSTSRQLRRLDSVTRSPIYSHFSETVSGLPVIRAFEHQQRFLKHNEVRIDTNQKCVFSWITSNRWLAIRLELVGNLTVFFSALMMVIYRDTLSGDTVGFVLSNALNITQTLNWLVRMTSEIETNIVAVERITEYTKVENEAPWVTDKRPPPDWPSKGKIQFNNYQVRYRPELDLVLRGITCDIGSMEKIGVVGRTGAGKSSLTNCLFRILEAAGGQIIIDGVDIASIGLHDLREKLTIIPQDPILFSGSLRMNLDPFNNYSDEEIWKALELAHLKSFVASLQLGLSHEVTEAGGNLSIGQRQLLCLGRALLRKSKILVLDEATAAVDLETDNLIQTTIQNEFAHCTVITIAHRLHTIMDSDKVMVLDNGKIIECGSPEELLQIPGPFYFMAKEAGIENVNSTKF
Protocol: Transwell® inserts were coated with type 1 rat tail collagen (100 µg/cm^2). Cells were seeded at a density of 250,000 cells per well. Transport studies were conducted across MDCK-MDR1 and MDCK-MRP2 cells in presence and absence of efflux inhibitors for a period of 3 h at 37 °C. Prior to the initiation of transport study, cell monolayer integrity was evaluated by monitoring transepithelial electric resistance (TEER), with an EVOM (epithelial volt ohmmeter from World Precision Instruments, Sarasota, FL, USA). TEER values of the cell monolayer were approximately 250 Ω*cm^2. Monolayers were washed thoroughly with DBPS (pH7.4) for 15 min at 37 °C, three times. […] At predetermined time points (30, 60, 120 and 180 min), 100 µL sample was withdrawn from the receiving chamber and replaced with fresh DPBS to maintain sink conditions. Samples were stored at −80 °C until further analysis. To determine the effect of efflux inhibitors, cells were treated GF 120918 (MDCK-MDR1) and MK 571 (MDCK-MRP2) prior to initiation of the transport study.
Samples were extracted with liquid–liquid extraction technique. About, 50 μL of verapamil (200 ng) was added as an internal standard to each sample. Analytes were extracted by vortexing with 800 μL water saturated ethyl acetate for 2.5 min. Following centrifugation at 10,000 rpm for 7 min, approximately 600 µL of ethyl acetate layer was collected and evaporated under reduce pressure for 45 min. The residue was reconstituted in 100 μL of acetonitrile (80%) and water (20%) containing 0.1% formic acid. Ten microliters of reconstituted samples were injected in LCMS/MS. Similarly, standard solutions were extracted from DPBS and quantified with LCMS/MS. […]
Transepithelial permeability was determined by plotting cumulative amount of analyte transported against time. […]
Transepithelial permeability was calculated by normalizing the steady-state flux with the donor concentration (Cd) according to Equation (2): Transepithelial permeability = flux/Cd (2)

[3] = tested on: CYP3A4 (rat liver microsomes); experiment: Rat liver microsomal stability; conditions: for Half life in liver microsomes, fold higher compared to LPV: time dependent study
Protocol: (§2) One mL of microsomal solution was generated by adding microsomal protein (0.3 mg/mL), magnesium chloride (5 mM), glucose 6-phosphate (5 mM), b-NADP1 (1 mM), and glucose 6-phosphate dehydrogenase (1 U/mL) in phosphate buffer (100 mM, pH 7.4). […] The metabolic reaction was initiated by adding the NADPH generating system. NADPH generating system was freshly prepared by adding G-6-P, G-6-P DH and NADP in DDW. At predetermined time points, metabolic reaction was arrested by adding equal volumes of ice-cold acetonitrile to the sample. Samples were stored at −80 °C until further analysis by LCMS/MS technique.
(§3) This study was performed according to the previously published protocols from our laboratory. At predetermined time points, about 100 μL of samples were withdrawn and equal volume of acetonitrile was added to stop the degradation process. Degradation study was conducted for a period of 2 h. Samples were stored at −80 °C until further analysis.
(§4) Enzymatic degradation was arrested by adding equal amount of acetonitrile and samples were stored in −80 °C until further analysis.
(§5) Rat liver microsomes were employed at the concentration of 0.3 mg/mL. […] Liver microsomal solution was incubated with ketoconazole for 15 min prior to the initiation of stability study.

[4] = Solubility study in distilled deionized water (DDW); conditions: for Solubility, fold higher relative to LPV: DDW; for Solubility in DDW: saturated solution, room temperature, 24 h; for solubility at 24 h: distilled deionized water, water, thermodynamic from solid
Protocol: Aqueous solubility study of prodrugs was performed according to the published protocol from our laboratory. Saturated solution of each prodrug was prepared in DDW in siliconized tubes. Tubes were placed in shaking water bath at room temperature (RT) for 24 h. Tubes were centrifuged at 10,000 rpm for 10 min to separate undissolved prodrugs. The supernatant was separated, filtered through 0.45 µm membrane (Nalgene syringe filter) and analyzed with HPLC after appropriate dilutions.
as §1

P-gp (MDCK-MDR1 cells) [5] = molecular target: T2, P-gp (MDCK-MDR1 cells) (Homo sapiens, UniProt P08183); experiment: Transepithelial transport across MDCK-MDR1 cells
T2 sequence (P08183 whole entry): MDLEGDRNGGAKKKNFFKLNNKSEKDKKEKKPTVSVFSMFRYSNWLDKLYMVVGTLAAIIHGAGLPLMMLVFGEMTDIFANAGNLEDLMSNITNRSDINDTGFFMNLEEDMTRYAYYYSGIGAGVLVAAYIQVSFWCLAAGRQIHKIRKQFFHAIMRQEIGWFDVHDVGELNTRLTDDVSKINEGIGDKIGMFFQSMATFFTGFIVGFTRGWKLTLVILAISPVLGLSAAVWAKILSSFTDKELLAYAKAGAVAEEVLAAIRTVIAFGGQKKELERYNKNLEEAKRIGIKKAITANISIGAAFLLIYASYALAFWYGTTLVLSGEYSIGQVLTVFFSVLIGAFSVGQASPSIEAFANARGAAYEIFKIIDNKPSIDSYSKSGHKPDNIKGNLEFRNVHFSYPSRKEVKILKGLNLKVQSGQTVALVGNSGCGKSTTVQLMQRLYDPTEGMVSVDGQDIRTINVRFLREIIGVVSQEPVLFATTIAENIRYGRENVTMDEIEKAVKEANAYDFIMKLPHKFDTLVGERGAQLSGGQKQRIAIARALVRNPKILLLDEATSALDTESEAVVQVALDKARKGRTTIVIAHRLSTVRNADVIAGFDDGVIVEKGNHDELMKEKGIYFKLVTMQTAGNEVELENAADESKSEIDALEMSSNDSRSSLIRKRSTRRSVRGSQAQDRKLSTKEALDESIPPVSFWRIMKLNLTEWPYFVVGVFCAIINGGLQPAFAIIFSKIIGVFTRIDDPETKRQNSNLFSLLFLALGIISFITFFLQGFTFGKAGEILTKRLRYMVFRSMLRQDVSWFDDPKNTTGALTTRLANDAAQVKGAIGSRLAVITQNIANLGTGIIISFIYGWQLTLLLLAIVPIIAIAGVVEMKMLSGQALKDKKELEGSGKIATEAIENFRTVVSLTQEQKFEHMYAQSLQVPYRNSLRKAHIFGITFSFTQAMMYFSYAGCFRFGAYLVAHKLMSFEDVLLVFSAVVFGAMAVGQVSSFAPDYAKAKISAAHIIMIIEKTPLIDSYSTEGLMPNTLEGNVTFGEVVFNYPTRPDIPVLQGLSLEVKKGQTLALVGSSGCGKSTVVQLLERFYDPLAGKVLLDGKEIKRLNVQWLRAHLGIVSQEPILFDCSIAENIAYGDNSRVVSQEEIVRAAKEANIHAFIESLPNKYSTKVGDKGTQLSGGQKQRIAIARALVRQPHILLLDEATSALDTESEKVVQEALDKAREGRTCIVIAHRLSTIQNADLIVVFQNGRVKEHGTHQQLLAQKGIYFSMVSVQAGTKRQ
Protocol: Samples were stored at −80 °C until further analysis.
Samples were extracted with liquid–liquid extraction technique.

P-gp (MDCK-MDR1 cells) [6] = molecular target: T2, P-gp (MDCK-MDR1 cells); experiment: Cellular uptake of unlabelled LPV and prodrugs in MDCK-MDR1 cells; type: in vitro ADME; parameters: A. Schinkel and P. Borst (Netherlands Cancer Institute); host or cells: MDCK (MDCK-MDR1), retrovirally transfected; conditions: 5 µM, 30 min
Protocol: About 500 µL of DMEM was added to each well and plates were kept in −80 °C overnight for cell lysis.

MRP2 (MDCK-MRP2 cells) [7] = molecular target: T1, MRP2 (MDCK-MRP2 cells); experiment: [3H]-LPV uptake in MDCK-MRP2 cells; type: cell-based; parameters: A. Schinkel and P. Borst (Netherlands Cancer Institute); host or cells: MDCKII (MDCKII-MRP2), retrovirally transfected; conditions: for [3H]-LPV uptake, fold enhancement in presence of inhibitor: DPBS pH 7.4, 37 °C
Protocol: (§6) Confluent cells were then trypsinized and plated at a density of 3 × 10^6 cells in 12 well culture plates. Medium was replaced every alternate day until cells reached confluency (6–7 days). Cellular uptake studies were performed on confluent cell monolayers according to previously published protocol from our laboratory. Briefly, medium was removed and cell monolayer was washed with 2 mL of DPBS (130 mM NaCl, 0.03 mM KCl, 7.5 mM Na2HPO4, 1.5 mM KH2PO4, 1 mM CaCl2, 0.5 mM MgSO4, and 5 mM glucose, pH 7.4) three times at 37 °C (each wash of 10 min). […] Following incubation, radioactive solution was quickly removed and plates were washed with ice-cold stop solution (210 mM KCl, 2 mM HEPES, pH of 7.4) to arrest the uptake process. One mL of lysis buffer (0.1% Triton-X solution in 0.3% NaOH) was added to each well and plates were stored overnight at RT. Later, 500 µL solutions were transferred to scintillation vials containing 3 mL of scintillation cocktail. The radioactivity associated with cells was analyzed with a scintillation counter (Beckman Instruments Inc., Model LS-6500; Fullerton, CA, USA). Uptake rate was normalized to protein count which was quantified with a BioRad protein estimation kit.
(§7) Prior to initiation of uptake studies, cells were treated with efflux inhibitors for a period of 15 min. Uptake study was then initiated according to a procedure described in section 2.2.5.

P-gp (MDCK-MDR1 cells) [8] = molecular target: T2, P-gp (MDCK-MDR1 cells); conditions: MDCK-MDR1, DPBS pH 7.4, 37 °C
Protocol: as §6, §7

CYP3A4 = experiment: Rat liver microsomal stability; conditions: Sprague Dawley, rat, pH 7.4
Protocol: as §2, §3, §4, §5

C[S+](C)[O-] [DMSO]
Reduction in absorbance (positive controls) (MDCK-WT cells): 30%

CSCCC(N)C(=O)OC(CC(Cc1ccccc1)NC(=O)C(C(C)C)N1CCCNC1=O)C(Cc1ccccc1)NC(=O)COc1c(C)cccc1C (stereo not shown) [Met-LPV, methionine-LPV]
Degradation half life ([1]; pH 4, 37 °C): 119 ± 6 h
Degradation half life ([1]; pH 5.5, 37 °C): 55 ± 6 h
Degradation half life ([1]; pH 7.4, 37 °C): 6.2 ± 0.4 h
A-B permeability, fold higher relative to LPV (MRP2 (MDCK-MRP2 cells) [2]): ~1.9 fold
Degradation rate constant in liver microsomal solution [3]: ~3.6 ± 0.4 × 10^−^3 min^−^1
Intrinsic clearance (Vmax/Km) [3]: 0.5 mL/min/mg protein
Km [3]: ~13 µM
Half life in liver microsomes, fold higher compared to LPV [3]: 1.6 to 1.8 fold
Solubility, fold higher relative to LPV [4]: ~9 fold
Solubility in DDW [4]: 362 ± 21 µg/mL (≈ 476 µM)
A-B permeability, fold higher relative to LPV (P-gp (MDCK-MDR1 cells) [5]): ~2.3 fold
Cellular uptake, fold higher relative to LPV (P-gp (MDCK-MDR1 cells) [6]): ~2.4 fold

Cc1cccc(C)c1OCC(=O)NC(Cc1ccccc1)C(CC(Cc1ccccc1)NC(=O)C(C(C)C)N1CCCNC1=O)OC(=O)C(N)Cc1c[nH]c2ccccc12 (stereo not shown) [Trp-LPV, tryptophan-LPV]
Degradation half life ([1]; pH 4, 37 °C): 123 ± 14 h
Degradation half life ([1]; pH 5.5, 37 °C): 50 ± 9 h
Degradation half life ([1]; pH 7.4, 37 °C): 5.4 ± 0.3 h
A-B permeability, fold higher relative to LPV (MRP2 (MDCK-MRP2 cells) [2]): ~1.7 fold
Km ([3]; read-out: Km (affinity constant), 0.5–40 µM, 5 min, microsomes 0.3 mg/mL, Michaelis-Menten fit): ~13.2 µM
Half life in liver microsomes, fold higher compared to LPV [3]: 1.6 to 1.8 fold
Solubility, fold higher relative to LPV [4]: ~7 fold
Solubility in DDW [4]: 274 ± 11 µg/mL (≈ 336 µM)
A-B permeability, fold higher relative to LPV (P-gp (MDCK-MDR1 cells) [5]): ~1.8 fold
Cellular uptake, fold higher relative to LPV (P-gp (MDCK-MDR1 cells) [6]): ~1.8 fold

CN(C)C(=O)CCSC(SCCC(=O)O)c1cccc(/C=C/c2ccc3ccc(Cl)cc3n2)c1 (stereo not shown) [MK 571]
[3H]-LPV uptake, fold enhancement in presence of inhibitor (MRP2 (MDCK-MRP2 cells) [7]; 25 µM inhibitor): 2.5 fold
[3H]-LPV uptake, fold enhancement in presence of inhibitor (MRP2 (MDCK-MRP2 cells) [7]; 75 µM inhibitor): 3 fold

Cc1cccc(C)c1OCC(=O)N[C@@H](Cc1ccccc1)[C@@H](O)C[C@H](Cc1ccccc1)NC(=O)[C@H](C(C)C)N1CCCNC1=O [LPV, lopinavir]
[3H]-LPV uptake in presence of increasing concentrations of test compound (P-gp (MDCK-MDR1 cells) [8]): elevated significantly
[3H]-LPV uptake in presence of increasing concentrations of test compound (MRP2 (MDCK-MRP2 cells) [7]; MDCK-MRP2, DPBS pH 7.4, 37 °C): enhancement of [3H]-LPV uptake
solubility at 24 h [4]: 40 ± 8 µg/mL (≈ 63.6 µM)
Cytotoxicity (MDCK-WT cells; 100 µM): generated cytotoxic effects

CC(C)(C)CC(C)(C)c1ccc(OCCO)cc1 [Triton-X]
Reduction in absorbance (positive controls) (MDCK-WT cells): 90%

CCC(C)C(N)C(=O)OC(CC(Cc1ccccc1)NC(=O)C(C(C)C)N1CCCNC1=O)C(Cc1ccccc1)NC(=O)COc1c(C)cccc1C (stereo not shown) [Ile-LPV, isoleucine-LPV]
half-life at 50 µM ([1]; pH 4): 101 ± 29 h
half-life at 50 µM ([1]; pH 5.5): 53 ± 10 h
half-life at 50 µM ([1]; pH 7.4): 6.4 ± 0.3 h
A-B permeability, fold higher relative to LPV (MRP2 (MDCK-MRP2 cells) [2]): about 2.8 fold
Half life in liver microsomes, fold higher compared to LPV [3]: 1.6 to 1.8 fold
Km at 5 min (CYP3A4): ~14.3 µM
Solubility, fold higher relative to LPV [4]: about 15 fold
solubility at 24 h [4]: 625 ± 27 µg/mL (≈ 842 µM)
A-B permeability, fold higher relative to LPV (P-gp (MDCK-MDR1 cells) [5]): about 3 fold
Cellular uptake, fold higher relative to LPV (P-gp (MDCK-MDR1 cells) [6]): about 2.7 fold
